{"source": "patent US20060240057A1", "about": "“Termiticide compositions” (priority 2003, published 2006)", "key": {"[1]": {"test_system": "termites (Reticulitermes flavipes)", "assay": "Termite mortality by direct application (track sprayer) of combinations of bifenthrin and acetamiprid to termites", "type": "in vivo", "conditions": "for mortality at 10 ppm / mortality at 50 ppm / mortality at 100 ppm / mortality at 200 ppm: Reticulitermes flavipes, read-out: Percent Mortality", "experimental": "(§1) Test compositions made up of Talstar® Termiticide/Insecticide and a 70% wettable powder of acetamiprid in distilled water were prepared that provided appropriate rates of application of combinations of bifenthrin and acetamiprid, as well as bifenthrin and acetamiprid alone.\nSolutions of the test materials were applied directly to 50 termites (Reticulitermes flavipes) per petri plate using a track sprayer calibrated to deliver 1.2 ml per petri plate at 40 psi. After application, petri dishes with treated termites were inverted onto fresh petri plates containing dry filter paper. After all applications were completed, termites were then transferred to petri dishes containing moist soil with cardboard as a food source. Expired termites were removed at each reading. At 0 hours, 1 hour, 2 hours, 1 day, and 2 days after treatment (HAT or DAT, respectively), termite mortality was measured. The following calculation determined whether the combination treatments provided enhanced activity over what would be expected based on the activity of each active ingredient separately: [formula]\nA and B refer to the two separate treatments of two different active ingredients at specific rates."}, "[2]": {"test_system": "termite (Reticulitermes flavipes) workers", "assay": "Termite mortality by soil applications of combinations of bifenthrin and acetamiprid (soil column in glass tube)", "type": "in vivo", "conditions": "soil application, read-out: Percent Mortality; for mortality at 60 ppm: Bifenthrin @ 60 ppm; for mortality at 500 ppm: Acetamiprid @ 500 ppm", "experimental": "as §1\nGlass tubing, 13 mm in diameter, was then cut into 20 cm sections in sufficient quantity to conduct the test. Each […] section of tubing was marked at 5 cm, 8 cm, and 18 cm distances from one end of the tube designated as the bottom. Each section of tubing was packed with a sandy soil (3% wt/wt moisture content) by first placing a section of a 1 cm diameter wooden dowel into the bottom of the glass tube up to the 8 cm marking, then introducing approximately 2 cm of soil into the other end of the tube designated as the top. The soil was then gently packed into the tube from the top using a second section of the 1 cm diameter wooden dowel. The process was repeated using 2 cm aliquots of soil until the soil level was adjacent to the 18 cm marking, thereby providing a column of soil 10 cm in height. An agar plug, which was formed in a section of the 13 mm diameter glass tubing of the type used to conduct these tests, was cut into 3 cm sections. A 3 cm section of agar was then gently pushed into the bottom of each tube containing the soil until the agar plug firmly touched the soil at the 8 cm marking, thereby creating a 5 cm void in the bottom of each section of tubing. Following placement of the agar plugs in each section of tubing; two sections of applicator sticks cut in 6 cm lengths were inserted into the bottom end of each tube thereby forcing about 1 cm of each stick into the agar plug to hold the agar plug in place. Plastic caps, with an inside diameter of 13 mm and holes drilled in their centers, were placed on the bottom ends of each of the sections of tubing. A sharpened applicator stick was then inserted into the hole in each plastic cap through the agar plug to the intersection of the agar plug and the soil. The applicator stick was then gently removed in a rotating manner to provide a means for a free flow of liquid through the soil. Each section of tubing was then stood upright, and 0.5 niL aliquots of each suspension of bifenthrin, acetamiprid or combinations thereof, as prepared above, were pipetted onto the top of the soil. Upon application of the test suspensions the top of each section of tubing was covered with a small piece of aluminum foil. The tubes were then allowed to stand for about 20 hours to allow movement of the termiticide(s) downward into the soil. After this time a plastic cap of 13 mm inside diameter was placed on the top of each section of tubing. The plastic caps with the holes drilled in their centers were removed from the bottom of each section of tubing, and a piece of 0.5 cm×4 cm filter paper was then placed between the two sections of applicator sticks. Fifty termite (Reticulitermes flavipes) workers were then inserted into the 5 cm void in the bottom of each section of tubing. New plastic caps without holes drilled in their centers were placed on the bottom of each section of tubing. The sections of tubing were then stored in an upright position, with the termites located below the soil. At 1, 3, 6, 8, 10, 13, 15, 17, 20, and 22 days after treatment (DAT), termite mortality was measured."}}, "note": "Where two headings read alike, the source gives them in different places."}
{"smiles": "Cc1c(COC(=O)[C@@H]2[C@H](/C=C(\\Cl)C(F)(F)F)C2(C)C)cccc1-c1ccccc1", "note": "(racemic) [Bifenthrin, bifenthrin]", "values": [{"measurement": "Percent Mortality", "setting": "[1]; Bifenthrin @ 10 ppm, 1 HAT", "result": 0, "unit": "%"}, {"measurement": "Percent Mortality", "setting": "[1]; Bifenthrin @ 10 ppm, 2 HAT", "result": 0, "unit": "%"}, {"measurement": "Percent Mortality", "setting": "[1]; Bifenthrin @ 50 ppm, 1 HAT", "result": 0, "unit": "%"}, {"measurement": "Percent Mortality", "setting": "[1]; Bifenthrin @ 50 ppm, 2 HAT", "result": 0, "unit": "%"}, {"measurement": "mortality at 10 ppm", "setting": "[1]; 24 h, Bifenthrin @ 10 ppm, 1 DAT", "result": 11, "unit": "%"}, {"measurement": "mortality at 50 ppm", "setting": "[1]; 24 h, Bifenthrin @ 50 ppm, 1 DAT", "result": 63, "unit": "%"}, {"measurement": "mortality at 10 ppm", "setting": "[1]; 48 h, Bifenthrin @ 10 ppm, 2 DAT", "result": 26, "unit": "%"}, {"measurement": "mortality at 50 ppm", "setting": "[1]; 48 h, Bifenthrin @ 50 ppm, 2 DAT", "result": 96, "unit": "%"}, {"measurement": "mortality at 10 ppm", "setting": "[1]; Bifenthrin @ 10 ppm, 0 HAT", "result": 0, "unit": "%"}, {"measurement": "mortality at 50 ppm", "setting": "[1]; Bifenthrin @ 50 ppm, 0 HAT", "result": 0, "unit": "%"}, {"measurement": "mortality at 60 ppm", "setting": "[2]; 24 h, 1 DAT", "result": 6, "unit": "%"}, {"measurement": "mortality at 60 ppm", "setting": "[2]; 72 h, 3 DAT", "result": 6, "unit": "%"}, {"measurement": "mortality at 60 ppm", "setting": "[2]; 144 h, 6 DAT", "result": 11, "unit": "%"}, {"measurement": "mortality at 60 ppm", "setting": "[2]; 192 h, 8 DAT", "result": 13, "unit": "%"}, {"measurement": "mortality at 60 ppm", "setting": "[2]; 240 h, 10 DAT", "result": 13, "unit": "%"}, {"measurement": "mortality at 60 ppm", "setting": "[2]; 312 h, 13 DAT", "result": 13, "unit": "%"}, {"measurement": "mortality at 60 ppm", "setting": "[2]; 360 h, 15 DAT", "result": 16, "unit": "%"}, {"measurement": "mortality at 60 ppm", "setting": "[2]; 408 h, 17 DAT", "result": 16, "unit": "%"}, {"measurement": "mortality at 60 ppm", "setting": "[2]; 480 h, 20 DAT", "result": 16, "unit": "%"}, {"measurement": "mortality at 60 ppm", "setting": "[2]; 528 h, 22 DAT", "result": 16, "unit": "%"}]}
{"smiles": "C/C(=N\\C#N)N(C)Cc1ccc(Cl)nc1", "note": "[Acetamiprid, acetamiprid]", "values": [{"measurement": "Percent Mortality", "setting": "[1]; Acetamiprid @ 100 ppm, 1 HAT", "result": 0, "unit": "%"}, {"measurement": "Percent Mortality", "setting": "[1]; Acetamiprid @ 100 ppm, 2 HAT", "result": 0, "unit": "%"}, {"measurement": "Percent Mortality", "setting": "[1]; Acetamiprid @ 200 ppm, 1 HAT", "result": 0, "unit": "%"}, {"measurement": "Percent Mortality", "setting": "[1]; Acetamiprid @ 200 ppm, 2 HAT", "result": 0, "unit": "%"}, {"measurement": "mortality at 100 ppm", "setting": "[1]; 24 h, Acetamiprid @ 100 ppm, 1 DAT", "result": 16, "unit": "%"}, {"measurement": "mortality at 200 ppm", "setting": "[1]; 24 h, Acetamiprid @ 200 ppm, 1 DAT", "result": 35, "unit": "%"}, {"measurement": "mortality at 100 ppm", "setting": "[1]; 48 h, Acetamiprid @ 100 ppm, 2 DAT", "result": 78, "unit": "%"}, {"measurement": "mortality at 200 ppm", "setting": "[1]; 48 h, Acetamiprid @ 200 ppm, 2 DAT", "result": 88, "unit": "%"}, {"measurement": "mortality at 100 ppm", "setting": "[1]; Acetamiprid @ 100 ppm, 0 HAT", "result": 0, "unit": "%"}, {"measurement": "mortality at 200 ppm", "setting": "[1]; Acetamiprid @ 200 ppm, 0 HAT", "result": 0, "unit": "%"}, {"measurement": "mortality at 500 ppm", "setting": "[2]; 24 h, 1 DAT", "result": 5, "unit": "%"}, {"measurement": "mortality at 500 ppm", "setting": "[2]; 72 h, 3 DAT", "result": 84, "unit": "%"}, {"measurement": "mortality at 500 ppm", "setting": "[2]; 144 h, 6 DAT", "result": 100, "unit": "%"}, {"measurement": "mortality at 500 ppm", "setting": "[2]; 192 h, 8 DAT", "result": 100, "unit": "%"}, {"measurement": "mortality at 500 ppm", "setting": "[2]; 240 h, 10 DAT", "result": 100, "unit": "%"}, {"measurement": "mortality at 500 ppm", "setting": "[2]; 312 h, 13 DAT", "result": 100, "unit": "%"}, {"measurement": "mortality at 500 ppm", "setting": "[2]; 360 h, 15 DAT", "result": 100, "unit": "%"}, {"measurement": "mortality at 500 ppm", "setting": "[2]; 408 h, 17 DAT", "result": 100, "unit": "%"}, {"measurement": "mortality at 500 ppm", "setting": "[2]; 480 h, 20 DAT", "result": 100, "unit": "%"}, {"measurement": "mortality at 500 ppm", "setting": "[2]; 528 h, 22 DAT", "result": 100, "unit": "%"}]}
